# Data: patent US6084072A, “Purified lectin and methods of use” (The Regents of the University of Michigan, priority 1993, dated 2000)
# “Also recorded” adds a separate entry of the source.
# Tests used:
# [1] = molecular target: T1, amaranthin (Amaranthus caudatus, UniProt Q71QF2); experiment: Precipitation of amaranthin by glycoproteins and glycoconjugates, native or glycosidase treated; assay type: binding; conditions: for precipitation of amaranthin, in words: untreated glycoprotein or glycoconjugate, 80 μg amaranthin; for Precipitate formation with amarantin: Glycosidase: β-Galactosidase
# T1 sequence (Q71QF2 entry or part of it): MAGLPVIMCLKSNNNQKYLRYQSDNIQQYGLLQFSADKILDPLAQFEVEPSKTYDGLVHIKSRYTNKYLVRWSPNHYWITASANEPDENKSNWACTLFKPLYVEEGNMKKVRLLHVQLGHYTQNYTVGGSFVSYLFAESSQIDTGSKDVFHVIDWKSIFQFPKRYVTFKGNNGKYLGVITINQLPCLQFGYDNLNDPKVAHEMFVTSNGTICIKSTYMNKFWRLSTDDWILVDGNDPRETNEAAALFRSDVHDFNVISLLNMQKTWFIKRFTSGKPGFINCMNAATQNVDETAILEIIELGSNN
# Experimental: Glycosidase digestions, and in particular exo-β-galactosidase digestions were carried out for 9 hours at 37° C. in 0.1 M sodium citrate, pH 4.3 using 0.1 unit of enzyme/μmol of terminal galactosyl group. Endo-α-N-acetylgalactosaminidase treatment of asialo-ovine submaxillary mucin was done as described in Sadler, J. E., Rearick, J. L., Paulson, J. C., and Hill, R. L. (1979). GSC Exo-α-N-acetylgalactosaminidase digestion of asialo-ovine submaxillary mucin was carried out according to the recommendations of Genzyme of Boston, Mass. Glycoproteins were analyzed for carbohydrate composition, before and after glycosidase treatment, as described.
# (§1) Precipitation assays were conducted in 1.5 ml centrifuge tubes by the method of So and Goldstein. Indicated amounts of glycoprotein were added to 80 μg of amaranthin, and the total volume was adjusted to 250 μl with phosphate buffered saline. The tubes were incubated at 37° C. and then kept at 4° C. for 2 days. The precipitates were centrifuged, washed with cold Phosphate buffered saline, dissolved in 0.05 N NaOH and analyzed for protein by the method of Lowery et al. using bovine serum albumin as the standard. Hapten inhibition assays were carried out using 80 μg of amaranthin, 5 μg of asialo-ovine submaxillary mucins, and the indicated sugar concentrations. Inhibition was determined relative to the amount of precipitate formed in the control with no sugar added. All precipitation assays were conducted in duplicate to bring the tolerance within ±5% and the amount of precipitate formed average.
# [2] = molecular target: T1, amaranthin; experiment: Hapten inhibition of amaranthin/asialo-ovine submaxillary mucin precipitation; assay type: binding; conditions: for Relative Inhibition potency ACA: N-Acetylgalactosamine = 1
# Experimental: as §1
# [3] = molecular target: T2, PNA (Arachis hypogaea, UniProt P02872); experiment: Hapten inhibition of PNA/asialoglycophorin precipitation; assay type: binding; conditions: Galactose = 1; 40 μg PNA, 6 μg asialoglycophorin
# T2 construct: purchased E.Y. Laboratories, San Mateo, Calif; (donated by Dr. A. Chu)
# T2 sequence (P02872 24-273): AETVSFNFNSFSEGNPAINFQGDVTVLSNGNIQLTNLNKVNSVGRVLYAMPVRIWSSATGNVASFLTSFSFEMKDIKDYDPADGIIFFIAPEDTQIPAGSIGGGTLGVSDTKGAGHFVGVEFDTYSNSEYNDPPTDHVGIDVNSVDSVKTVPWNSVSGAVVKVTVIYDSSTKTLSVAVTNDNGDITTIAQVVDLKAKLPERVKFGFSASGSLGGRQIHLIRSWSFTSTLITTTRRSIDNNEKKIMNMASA
# Experimental: (§2) Precipitation reactions with PNA were carried out similarly, except that 40 μg of PNA was used. Hapten inhibition studies with PNA used 40 μg of PNA, 6 μg of asialoglycophorin, and the indicated sugar concentrations.
# [4] = molecular target: T1, amaranthin; experiment: Elution of amaranthin from Synsorb-T column; assay type: binding
# Source text: The unbound material was washed from the Synsorb-T beads with phosphate buffered saline (PBS), and the A. caudatus lectin was eluted with 0.1 N acetic acid, pH 3. The Synsorb-T beads are fine particles of diatomaceous earth, or sand material bonded to the disaccharide Galβ1,3GalNAcα-O--(CH2)8 CO. […] Thus, it was necessary to reapply the unbound material to the affinity column to obtain the remaining lectin.
# Elution of amaranthin from the affinity columns with non-specific agents was employed due to the expense and limited availability of Galβ1,3GalNAc, the best binding ligand. GalNAc (0.5 M) was effective in displacing amaranthin from the Synsorb-T matrix. However, when amaranthin (0.9 mg) was applied to a small Synsorb-T column (0.58 ml), it was observed that 100 μM Galβ1,3GalNAcα-O-benzyl eluted the lectin.
# [5] = molecular target: T2, PNA; experiment: Precipitation reactions with PNA; assay type: binding
# Experimental: as §2
# [6] = molecular target: T2, PNA; conditions: reported by Pereira; cited from earlier work
# [7] = molecular target: T2, PNA; conditions: reported by Lotan, Pereira; cited from earlier work
# [8] = molecular target: T3, Artocarpus intergrifolia lectin (Artocarpus integer, UniProt P18670); conditions: cited from earlier work
# T3 construct: host or cells: Artocarpus integrifolia seeds
# T3 sequence (P18670 whole entry): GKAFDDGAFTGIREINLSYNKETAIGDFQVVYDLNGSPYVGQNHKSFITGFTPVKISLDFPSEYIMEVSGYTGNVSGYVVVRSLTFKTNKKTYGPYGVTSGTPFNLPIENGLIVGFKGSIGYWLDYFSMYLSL
# T3 sequence (P18673 whole entry partner): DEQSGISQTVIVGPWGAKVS
compound,measurement,setting,value
"Galβ1,3[NeuAcα2,6]GalNAcα-O-BSA","precipitation of amaranthin, in words",[1],good precipitating agents; also recorded: can precipitate amaranthin
"Asialo-glycopeptide Mt: NH2-terminal 39 amino acids of asialoglycophorin with 12 Galβ1,3GalNAcα-O residues and one N-linked oligosaccharide (LSTTEVAMHTSTSSSVTKSYISSQTNDTHKRDTYAATPR; desialylated glycans; UniProt P02724 20-58, looked up, fragment)",Precipitate formation with amarantin,[1],No
same,Precipitate formation with amarantin,[1]; listed as asialo-glycopeptide Mt,reactivity was eliminated; also recorded: no longer precipitates
same,"precipitation of amaranthin, in words",[1],reacted strongly; also recorded: reacts very well with amaranthin
Asialofetuin: desialylated fetuin,"precipitation of amaranthin, in words",[1],precipitated a small amount of amaranthin; also recorded: weak precipitation reaction
CC(=O)N[C@H]1C(O)O[C@H](CO)[C@H](O)[C@@H]1O (stereo partly shown) [N-Acetylgalactosamine],IC50,[2],790000 nM
same,"times less potent than Galβ1,3GalNAcα-O--R (α-linked T-antigen disaccharides)",[2]; inhibitor of amaranthin,350
same,"inhibition of amaranthin/AOSM precipitation, in words",[2]; listed as GalNAc,only monosaccharide found to inhibit; also recorded: inhibited by GalNAc
same,Relative Inhibition potency PNA,[3],< 0.4
same,concentration effective in displacing amaranthin from the Synsorb-T matrix,[4],0.5 M
laminin,"precipitation of amaranthin, in words",[1],did not precipitate amaranthin
"NeuAcα2,3Galβ1,3GalNAcα-OBSA","precipitation of amaranthin, in words",[1],good precipitating agents
same,"precipitation of PNA, in words",[5],not precipitated
bovine submaxillary mucin,"precipitation of amaranthin, in words",[1],did not form precipitates
asialo-α1 -acidglycoprotein: desialylated α1-acid glycoprotein,"precipitation of / reaction with PNA, in words",[6],precipitated by
same,"precipitation of amaranthin, in words",[1],did not precipitate amaranthin
"CC(=O)N[C@H]1C(O)O[C@H](CO)[C@@H](O[C@@H]2O[C@H](CO)[C@H](O)[C@H](O)[C@H]2O)[C@@H]1O (stereo partly shown) [Galβ1,4GlcNAc]",Relative Inhibition potency ACA,[2],< 0.008
same,"inhibition of PNA, in words",[7],rather good inhibitors
"Galβ1,3GalNAcβ-O-BSA","precipitation of PNA, in words",[5],react equally well
"Galβ,3GalNAcα-O-BSA","precipitation of amaranthin, in words",[1],good precipitating agents
same,"precipitation of amaranthin, in words","[1]; listed as Galβ1,3GalNAcα-O-BSA",can be precipitated by
same,"precipitation of PNA, in words",[5],react equally well
"CC(=O)N[C@H]1[C@@H](OCc2ccccc2)O[C@H](CO)[C@H](O)[C@@H]1O[C@@H]1O[C@H](CO)[C@H](O)[C@H](O)[C@H]1O [Galβ1,3GalNAcα-O-benzyl]",IC50,[2],1600 nM
same,Relative Inhibition potency ACA,[2],494
same,Relative Inhibition potency PNA,[3],50
same,concentration that eluted the lectin,[4]; 0.9 mg amaranthin on 0.58 ml Synsorb-T column,100 µM
"fetuin: fetuin, three O-linked oligosaccharide chains per molecule","precipitation of amaranthin, in words",[1],did not precipitate amaranthin; also recorded: does not precipitate fetuin
"COC(=O)CCCCCCCCO[C@H]1O[C@H](CO)[C@H](O)[C@H](O[C@@H]2O[C@H](CO)[C@H](O)[C@H](O)[C@H]2O)[C@H]1NC(C)=O [Galβ1,3GalNAcαO(CH2)8 -CH-CH3]",IC50,[2],1800 nM
same,Relative Inhibition potency ACA,[2],439
same,Relative Inhibition potency PNA,[3],47
CO[C@H]1O[C@H](CO)[C@H](O)[C@H](O)[C@H]1O [Methyl α-galactoside],Relative Inhibition potency ACA,[2],< 0.003
same,Relative Inhibition potency PNA,[3],2.2
"C=CCO[C@H]1O[C@H](CO)[C@H](O)[C@H](O[C@@H]2O[C@H](CO)[C@H](O)[C@H](O)[C@H]2O)[C@H]1NC(C)=O [Galβ1,3GalNAcα-O-CH2 CH = CH2]",IC50,[2],2100 nM
same,Relative Inhibition potency ACA,[2],376
same,fold more potent than the anomeric β-O-allyl glycoside,[2]; inhibitor of amaranthin,16
same,Relative Inhibition potency PNA,[3],38
"CC(=O)N[C@H]1C(O)O[C@H](CO)[C@H](O)[C@@H]1O[C@@H]1O[C@H](CO)[C@H](O)[C@H](O)[C@H]1O (stereo partly shown) [Galβ1,3GalNAc]",IC50,[2],3400 nM
same,Relative Inhibition potency ACA,[2],232
same,times more potent than GalNAc,[8],37
same,times more potent than galactose,[8],100
